Assay [1] addresses T1, PDE V (Homo sapiens, UniProt O76074).
T1 construct: from tissue; host or cells: platelets (supernatant, DEAE-Trisacryl M fraction)
Briefly: Type V PDE activity, hydrolysis of [3H]-cyclic GMP. The assay is classed as biochemical. To be noted: enzyme from platelets; cyclic GMP 0.2 uM; 2.5% dimethyl sulfoxide. On the procedure: Briefly, 1-2 units of platelets are suspended in an equal volume of buffer A (20 mM Tris-HCl, pH 7.5, containing 2 mM magnesium acetate, 1 mM dithiothreitol, and 5 mM Na2EDTA) using a polytron. The proteinase inhibitor phenylmethylsulfonyl fluoride (PMSF) are also included in this buffer at a final concentration of 200 uM. This and all subsequent procedures are performed at 0-4°C. The homogenate is then centrifuged at […] for 60 minutes. The supernatant is then removed and filtered through four layers of gauze and applied to a DEAE-Trisacryl M column. The column is washed with several bed volumes of buffer B (20 mM Tris-HCl, pH 7.5, containing 2 mM magnesium acetate, 1 mM diothiothreitol, and […] PMSF) and eluted by two successive linear NaCl gradients (0.05-0.15 M, 300 ml total; 0.15-0.40 M, 200 ml total). Five ml fractions are collected and assayed for cyclic AMP and cyclic GMP PDE activity. Fractions that contain PDE V are pooled and dialyzed overnight against 4 L of buffer C (20 mM Tris-HCl, pH 7.5, containing 2 mM magnesium acetate and proteinase inhibitors). The dialyzed PDE V is then concentrated to 10% of the original volume, diluted to 50% with ethylene glycol monoethyl ether and stored at -20°C. PDE V can typically be retained for up to four weeks with little or no loss of activity.
The reference Type V PDE inhibitor zaprinast is evaluated with each assay.

The target of assay [2] is T2, PDE III (Homo sapiens, UniProt Q14432).
T2 construct: Fractions containing PDE III activity are pooled and dialyzed; from tissue; host or cells: human platelets (100,000 x g supernatant, DEAE-Trisacryl M fraction)
Kind of assay: Type III PDE activity, hydrolysis of [3H]-cyclic AMP. The assay is classed as biochemical. To be noted: enzyme from human platelets; cyclic AMP 0.2 µM; 2.5% dimethyl sulfoxide. On the procedure:
The Type III PDE is isolated from human platelets using a procedure similar to that previously described by Weishaar, R.E.; Burrows, S.D.; Kobylarg, D.C., Quade, N.M.; Evans, D.B., Biochem. Pharmacol., 35:787, 1986. Briefly, 1-2 units of platelets are suspended in an equal volume of buffer (20 mM Tris-HCl, pH 7.5, containing 2 mM magnesium acetate, 1 mM dithiothreitol, and 5 mM Na2 EDTA). The protease inhibitor phenyl methyl-sulfonyl fluoride (PMSF) is also included in this buffer at a final concentration of 200 µM. The suspension is homogenized using a polytron and the homogenate centrifuged at 100,000 x g for 60 minutes. This and all subsequent procedures are performed at 0-4°C. The supernatant is then filtered through four layers of gauze and applied to a DEAE-Trisacryl M column, previously equilibrated with buffer B (20 mM Tris-HCl, pH 7.5, containing 1 mM magnesium acetate, 1 mM dithiothreitol and 200 µM PMSF). After application of the sample, the column is washed with several bed volumes of buffer B, after which the different forms of PDE are eluted from the column using two successive linear NaCl gradients (0.05-0.15 M, 300 ml total; 0.15-0.40 M, 200 ml total). Five milliliter fractions are collected and assayed for cyclic AMP and cyclic GMP PDE activity. Fractions containing PDE III activity are pooled and dialyzed overnight against 4 liters of buffer B. The dialyzed PDE III is then concentrated to 10% of the original volume, diluted to 50% with ethylene glycol monoethyl ether and stored at -20°C.
Enzyme activity is assessed by measuring the hydrolysis of [^3H]-cyclic AMP, as described by Thompson, W.J., Teraski, W.L., Epstein, P.N., Strada, S.J.: Adv. Cyclic Nucleotide Res. 10:69, 1979. The cyclic AMP concentration used in this assay is 0.2 µM, which approximates to the Km value. Protein concentration is adjusted to ensure that no more than 15% of the available substrate is hydrolyzed during the incubation period.
All test compounds are dissolved in dimethyl sulfoxide (final concentration of 2.5%).
The compounds are tested over concentration range: 0.1, 1, 10, 100 uM (n=1), and IC50 determinations are made using 5 appropriate concentrations (n=2).

Molecules are shown by their SMILES.

The source of these data is EP1160247A1, “6,5-Fused aromatic ring systems having enhanced phosphodiesterae IV inhibitory activity” (Euro-Celtique S.A., priority 2000, dated 2001).

T2 sequence (Q14432 whole entry): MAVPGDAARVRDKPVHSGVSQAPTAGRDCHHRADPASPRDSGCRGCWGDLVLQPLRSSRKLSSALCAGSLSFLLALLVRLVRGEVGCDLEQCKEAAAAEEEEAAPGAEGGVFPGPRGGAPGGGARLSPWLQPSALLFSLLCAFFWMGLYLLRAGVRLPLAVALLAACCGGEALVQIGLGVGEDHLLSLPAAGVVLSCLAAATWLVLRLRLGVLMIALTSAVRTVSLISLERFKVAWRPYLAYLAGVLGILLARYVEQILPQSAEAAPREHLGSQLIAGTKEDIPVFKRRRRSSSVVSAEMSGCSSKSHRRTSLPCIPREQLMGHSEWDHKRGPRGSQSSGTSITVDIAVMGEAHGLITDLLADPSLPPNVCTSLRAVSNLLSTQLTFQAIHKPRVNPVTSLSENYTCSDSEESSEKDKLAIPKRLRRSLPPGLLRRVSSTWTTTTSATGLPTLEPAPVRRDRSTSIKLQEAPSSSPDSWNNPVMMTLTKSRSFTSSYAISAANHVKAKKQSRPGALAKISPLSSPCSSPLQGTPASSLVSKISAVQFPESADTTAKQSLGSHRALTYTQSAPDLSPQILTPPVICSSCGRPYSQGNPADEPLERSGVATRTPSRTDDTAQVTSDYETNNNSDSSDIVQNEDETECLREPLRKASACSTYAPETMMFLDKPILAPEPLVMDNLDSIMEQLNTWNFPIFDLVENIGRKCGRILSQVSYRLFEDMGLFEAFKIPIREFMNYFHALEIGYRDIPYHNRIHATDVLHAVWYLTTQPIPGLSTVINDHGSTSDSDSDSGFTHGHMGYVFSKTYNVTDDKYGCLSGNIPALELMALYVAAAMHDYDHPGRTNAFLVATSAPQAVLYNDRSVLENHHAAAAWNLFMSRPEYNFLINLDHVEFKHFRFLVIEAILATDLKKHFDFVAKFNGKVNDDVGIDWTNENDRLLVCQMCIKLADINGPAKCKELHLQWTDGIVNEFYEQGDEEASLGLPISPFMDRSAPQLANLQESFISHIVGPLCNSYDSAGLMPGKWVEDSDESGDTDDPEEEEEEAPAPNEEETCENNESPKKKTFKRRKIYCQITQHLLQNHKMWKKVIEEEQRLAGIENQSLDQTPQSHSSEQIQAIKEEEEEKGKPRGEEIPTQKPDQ

`CC(C)(C)c1cc(Cc2nc3cc(Cl)cc(C#Cc4ccccn4)c3o2)cc(C(C)(C)C)c1O` [Example 1, 5-chloro-2-(3,5-di-t-butyl-4-hydroxy-benzyl)-7-(2-(2-pyridyl)-ethynyl)-benzoxazole]: the IC50 in assay [1] and in assay [2] was over 300 µM in each case.
In the case of `CC(C)(C)c1cc(Cc2nc3cccc(C#Cc4ccccn4)c3o2)cc(C(C)(C)C)c1O` [Example 2, 2-(3,5-di-t-butyl-4-hydroxy-benzyl)-7-(2-(2-pyridyl)-ethynyl)-benzoxazole], the values for the IC50 in assay [1] and in assay [2] were 35.1 µM and over 300 µM, respectively.
`CC(C)(C)c1cc(Cc2nc3cc(Cl)cc(C#Cc4nccs4)c3o2)cc(C(C)(C)C)c1O` [Example 3, 5-chloro-2-(3,5-di-t-butyl-4-hydroxy-benzyl)-7-(2-(2-thiazolyl)-ethynyl)-benzoxazole]: the IC50 in assay [1] and in assay [2] was over 300 µM each time.
Turning to `COc1ccc(C2CNC(=O)C2)cc1OC1CCCC1` (stereo not shown) [Rolipram, reference compound], 620 µM corresponded to half-maximal inhibition in assay [2] (IC50).
